Data published in patent publication US20250262167A1, “COMPOUNDS, TARGETS AND PATHWAYS FOR MACROPHAGE MODULATION” (Massachusetts Institute of Technology, priority 2020, published 2025).

Assays:
[1] = Macrophage numbers and gut bacterial counts in non-tumor bearing mice; assay type: in vivo, mouse
Procedure: (n=3). Shown are representative F4/80 versus CD11b staining profiles gating on CD45+ cells. I.P.: intraperitoneal injection; S.C.: paratumor subcutaneous injection. […] Data shown are mean±s.d. n.s., not significant by T-test.
Next, we examined whether thiostrepon has anti-tumor effect in vivo through activating macrophages. B16F10 melanoma cells were injected subcutaneously into syngeneic C57BL/6 mice. 6 and 12 days later, tumor-bearing mice were treated with either vehicle (DMSO), melanoma specific antibody TA99, thiostrepton, or combination of TA99 and thiostrepton by intraperitoneal injection (I.P.). […] Since thiostrepton inhibits cell proliferation and is an antibiotic, to exclude its systematic effects on immune cells and on gut microbiome, tumor-bearing mice were treated by para-tumor subcutaneous injection (S.C.) with a lower dose of thiostrepton (20 mg/kg). […] Consistently, more abundant macrophages were stained positive for F4/80 by immunochemistry in tumor sections from mice treated with thiostrepton or thiostrepton plus TA99 than mice treated with vehicle or T99 (FIG. 6E).

[2] = system: human Kupffer cells from NAFLD patients; conditions: 500 nM, ex vivo, 24 hours
Procedure: CD14^+ KCs were sorted from single cell suspension of NAFLD human liver biopsies (n=2) and treated with DMSO or DPI (500 nM) for 24 hrs, followed by RNAseq to quantify gene expression.
Human liver biopsies were obtained from livers procured from deceased donors deemed unacceptable for liver transplantation. Samples were collected with appropriate institutional ethics approval from The First Affiliated Hospital of Jilin University. All experiments were performed in accordance with the relevant guidelines and regulations. In addition, written informed consent was obtained from each subject. During organ retrieval, donor liver grafts were perfused in situ with cold (HTK) solution (Methapharm) to thoroughly flush out circulating cells, leaving only tissue resident cells that are then used to prepare a single-cell suspension to isolate immune cells. The unused liver caudate lobe post liver transplantation was collected and flushed with HBS+EGTA at 4° C. to remove any non-liver resident cells. Single-cell isolation from the resected caudate lobe was performed with a modified two-step collagenase procedure (MacFarland et al. 2017 ACnano). Single cell suspension was stained with anti-CD45 to sort all immune cells for scRNAseq or anti-CD14 to sort KCs for in vitro treatment by flow cytometry (BD Aria).
RNAs were extracted with RNeasy MinElute Kit (Qiagen), converted into cDNA and sequenced using Next-Generation Sequencing (Illumina). RNA-seq data were aligned to the human genome (version hg19) and raw counts of each genes of each sample were calculated with bowtie2 2.2.3 (Langmead et al. 2009) and RSEM 1.2.15 (Li et al. 2011). Differential expression analysis was performed using the program edgeR at P<0.05 with a two-fold change (Robinson et al. 2010). The gene expression level across different samples was normalized and quantified using the function of cpm. DEGs were annotated using online functional enrichment analysis tool DAVID (Huang et al. 2007). […]

[3] = HFD 16 weeks
Procedure: At week 15 plus 3 days, mice from FIG. 32A were starved overnight (12˜16 hrs) with only water. Glucose (1 mg/kg) was injected intraperitoneally and blood glucose levels were measured at the indicated time. AUC were calculated for statistics (right panel).
Liver samples fixed in 10% buffered formalin were embedded in paraffin, sliced (2 μm sections), and stained with hematoxylin and eosin (H&E). Histological examination for morphological changes was performed in a blinded manner. Liver sections were scored according to the criteria of the NAFLD activity score (NAS).
The GTT were performed in mice 19 weeks after feeding with HFD or NC. For GTT, mice were fasted overnight, followed by an intraperitoneal injection of 1 g/kg glucose. […] Blood was obtained from the tail vein before (0 min) and after (15, 30, 60, 90 and 120 min) the injection of glucose or insulin. Glucose levels were measured using an automatic glucometer (Roche Diagnostics, Rotkreuz, Switzerland).
B6 mice were fed with HFD for 16 weeks.

[4] = system: bone marrow derived macrophages (BMDMs); assay: Seahorse ECAR (glycolysis) in BMDMs; assay type: cell-based, mouse; conditions: Pkm−/− BMDMs, 50 nM
Procedure: FIGS. 21A-21I show DPI stimulates glycolysis through GPR3 and β-arrestin2. FIGS. 21A-21B show DPI-stimulated glycolysis is independent of the NOX activity. […] The mean fluorescence intensity (MFI) of 2-NBDG in cells was measured by flow cytometry and normalized to DMSO controls of wildtype BMDMs. Data are presented as the mean±sd (n=3). […] ImKCs were transfected with siRNA specific for Gpr3 or a scramble siRNA as control. […] Data are presented as the mean±sd (n=4). […] Data are presented as the mean±sd (n=12). […] Abbr2^−/− ImKC were constructed by CRISPR-Cas9-mediated gene editing. […] Data are presented as the mean±sd (n=4). […]
Specific parameters for glycolytic capacity and glycolytic reserve were calculated and summarized based on two independent experiments. […]
FIGS. 29A-29B show comparison of DPI's effect on glycolysis in wild-type and Pkm^−/− BMDMs. […] ImKCs were treated with DMSO or DPI alone (500 nM) or DPI plus ERK1/2 inhibitor (SCH772984, […]) for 6 hrs and the enzymatic activities of PKM2 (c) and GAPDH (d) were measured by colorimetric assay kits (Biovision). […]
OCR and ECAR were measured in isolated tissues or cultured ImKCs using the Seahorse XFe Extracellular Flux Analyzer (Agilent). […] Glucose levels were determined using a glucose (GO) assay kit (Sigma). […] Lactate levels were determined using a lactate assay kit (Eton Bioscience). […]

Kupffer cells (KCs) = conditions: HFD mice
Procedure: Single cell suspension was prepared from mice from FIG. 24A after 8 weeks on HFD (6 mice per group), stained with anti-F4/80, anti-CD11b and anti-Gr-1. F4/80^+CD11b^+Gr1^low macrophages were purified by cell sorting followed by RNAseq. Shown are differentially expressed genes among the three groups. […] M1-type polarization is expressed as positive scores whereas M2-type polarization is expressed as negative scores.
Mouse livers were dissected and digested with Collagenase IV (Roche). Single cell suspension was stained with anti-F4/80, anti-CD11b and anti-Gr-1. F4/80^+CD11b^+Gr1^low macrophages were sorted by flow cytometry (BD Aria). RNAs were extracted with RNeasy MinElute Kit (Qiagen), converted into cDNA and sequenced using Next-Generation Sequencing (Illumina). RNA-seq data were aligned to the human genome (version hg19) and raw counts of each genes of each sample were calculated with bowtie2 2.2.3 (Langmead et al. 2009) and RSEM 1.2.15 (Li et al. 2011). Differential expression analysis was performed using the program edgeR at P<0.05 with a two-fold change (Robinson et al. 2010). The gene expression level across different samples was normalized and quantified using the function of cpm. DEGs were annotated using online functional enrichment analysis tool DAVID (Huang et al. 2007).

ImKCs = conditions: 6 hours, dose-dependent
Procedure: ImKCs were treated with DPI for 6 hrs and select metabolites in the glycolytic pathway and TCA cycle were quantified by LC-MS. Data are presented as the mean±sd (n=4). P values were calculated by student t-test. * P<0.05, ** P<0.01, *** P<0.001, **** P<0.0001.
ImKCs were treated with DPI (500 nM) for 24 hrs and the select metabolites were quantified by LC-MS. Shown are representative data of two independent experiments. P values were calculated by student t-test. * P<0.05, ** P<0.01. n.s. not significant.
ImKCs were treated with DPI (#81050, Cayman) at 50 or 500 nM for 6 hrs or 24 hrs. Cells were washed once in ice-cold 0.9% NaCl and lysates were extracted in 80% methanol solution containing internal standards for LC/MS by scraping on dry ice followed by 10-minute mixing with vortex in 4° C. Following lysate extraction, debris were removed by high-speed centrifugation and supernatant was dried using speedvac. Samples were analyzed by LC/MS on QExactive Orbitrap instruments (Thermo Scientific) in Whitehead Institute metabolite profiling core facility.

[5] = system: ImKCs (immortalized line of mouse Kupffer cells); assay: Seahorse ECAR/OCR (glycolysis, OxPhos) in ImKCs; assay type: cell-based
Procedure: Shown are representative data of three independent experiments. […] Data are presented as the mean±sd (n=4).
FIGS. 21A-21I show DPI stimulates glycolysis through GPR3 and β-arrestin2. FIGS. 21A-21B show DPI-stimulated glycolysis is independent of the NOX activity. […] The mean fluorescence intensity (MFI) of 2-NBDG in cells was measured by flow cytometry and normalized to DMSO controls of wildtype BMDMs. Data are presented as the mean±sd (n=3). […] ImKCs were transfected with siRNA specific for Gpr3 or a scramble siRNA as control. […] Data are presented as the mean±sd (n=4). […] Data are presented as the mean±sd (n=12). […] Abbr2^−/− ImKC were constructed by CRISPR-Cas9-mediated gene editing. […] Data are presented as the mean±sd (n=4). […] ImKCs were transfected with Abbr2-GFP fusion gene and stimulated with DMSO, DPI (50 nM), or S1P (3 mM). The GFP signal was captured with a TIRF microscope at indicated time points. Shown are representative data of GFP signal at 0 min and 10 min, and merged signal from three independent experiments.
Specific parameters for glycolytic capacity and glycolytic reserve were calculated and summarized based on two independent experiments. […] The GFP signal was captured with a TIRF microscope at indicated time points. Shown are representative data of GFP signal at 0 min and 10 min, and the merged signal from three independent experiments.
OCR and ECAR were measured in isolated tissues or cultured ImKCs using the Seahorse XFe Extracellular Flux Analyzer (Agilent). For tissue respiration assays, 1.0 mg adipose tissue was dissected from inguinal WAT depots by using a surgical biopsy instrument (Integra Miltex Standard Biopsy Punches, Thermo Fisher) and placed into XF96 Islet Capture Microplates and pre-incubated with XF assay medium with pH value at 7.4. XF assay medium supplemented with 1 mM sodium pyruvate, 2 mM GlutaMax™-I, and 25 mM glucose. Isolated MDMs or Kupffer cells were subjected to a mitochondrial stress test by adding oligomycin (2 μM) followed by carbonyl cyanide 4-(trifluoromethoxy), phenylhydrazone (FCCP, 5 μM), and antimycin (1 μM). For glucose stress assay and ECAR measurement, XF assay medium was supplemented only with GlutaMax™-I. Tissue or cells were subjected to a glucose stress test by adding highly concentrated glucose (for tissue, 25 mM; for cells, 10 mM), followed by adding oligomycin (5 μM), FCCP (5 μM), and 2-DG (50 mM). Cells were seeded in culture dishes, and the medium was changed after 6 hours with serum-free DMEM. Cells were incubated for 12-16 hours, and the culture medium was then collected for measurement of glucose and lactate concentrations. Glucose levels were determined using a glucose (GO) assay kit (Sigma). Glucose consumption was the difference in glucose concentration when compared with DMEM. Lactate levels were determined using a lactate assay kit (Eton Bioscience).
DPI is an agonist of GPR3 and an inhibitor of […] oxidase (NOX). We first determined the requirement of NOX in DPI-stimulated glycolysis.
To determine the requirement of GPR3, we knocked down GPR3 by siRNA (siGpr3) in ImKCs.
β-arrestin2, encoded by Arrb2, has been reported to bind to GPR3 and is required for GPR3 signaling. To investigate the requirement of 0-arrestin2 in DPI-stimulated glycolysis, we constructed Arrb2^−/− ImKCs using CRISPR-Cas9 mediated gene editing (FIG. 28F).

[6] = system: BMDMs (wild-type and Pkm−/−); conditions: dose-dependent
Procedure: WT and Pkm^−/− BMDMs were not treated or treated with DPI (50 and 500 nM) for 24 hrs. The transcript levels of Pkm, Ldha, Hk2 and c-Myc were measured by real-time qPCR. Data were collected from two independent experiments with 3 biological replicates per group. Transcriptional level was normalized to β-actin first and then to DMSO control. Data are presented as the mean±sd. […] Transfected cells were not treated or treated with DPI (50 and 500 nM) for 6 hrs and luciferase activities were measured. Data are presented as the mean±sd (n=5). P values were calculated by student t-test. * P<0.05, ** P<0.01, *** P<0.001, **** P<0.0001.
To test this mechanism, we first determined if PKM2 is required for DPI-induced transcription of glycolytic genes. BMDMs were prepared from wild-type and Pkm^−/− mice, incubated with or without 50 and 500 nM DPI for 24 hours, and the transcript levels of key glycolytic genes were quantified by RT-PCR.
We also determined if c-Myc is induced by DPI in a PKM2-dependent manner. […] To determine whether DPI activates c-Myc transcriptional activity, we performed c-Myc luciferase reporter assays in the parental ImKCs and Pkm^−/− ImKCs.

[7] = 5, 50 and 500 nM, short-term, dose-dependent

C=C(NC(=O)C(=C)NC(=O)c1csc(C2=N[C@@H]3c4csc(n4)[C@H]4NC(=O)c5csc(n5)[C@H]([C@](C)(O)[C@@H](C)O)NC(=O)[C@H]5CSC(=N5)/C(=C/C)NC(=O)[C@H]([C@@H](C)O)NC(=O)c5csc(n5)[C@]3(CC2)NC(=O)[C@H](C)NC(=O)C(=C)NC(=O)[C@H](C)NC(=O)[C@H]([C@@H](C)CC)N[C@@H]2C=Cc3c([C@H](C)O)cc(nc3[C@H]2O)C(=O)O[C@@H]4C)n1)C(N)=O [Thiostrepton]
total bacterial counts in the gut ([1]; both dosing strategies): did not change | macrophages in the spleen and bone marrow ([1]; intraperitoneal administration): increased numbers | macrophage numbers ([1]; subcutaneous administration): did not have significant effects

c1ccc2c(c1)[I+]c1ccccc1-2 [Diphenyleneiodonium chloride]
expression of DAM markers APOE, CLEC10A, TREM2 and C1QA [2]: downregulated | expression of genes associated with chemokine-mediated signaling, chemotaxis and inflammatory response [2]: suppressed | expression of glycolytic genes [2]: upregulated | glucose tolerance [3]: increased | lipid droplet, steatosis and collagen deposition in the liver [3]: reduced | weight gain ([3]; 2 mg/kg every 5 days from week 9): significantly reduced | weight of iWAT ([3]; vs vehicle): significantly lower | glycolysis, glycolytic capacity and glucose consumption [4]: did not stimulate any increase | expression of genes involved in glycolysis, oxidative phosphorylation and fatty acid metabolism in KCs (Kupffer cells (KCs)): upregulated | expression of genes involved in inflammation in KCs (Kupffer cells (KCs)): significantly suppressed | macrophage polarization index (MPI) of KCs (Kupffer cells (KCs)): reprogrammed to an intermediated phenotype | glucose level (ImKCs): decreased significantly | levels of TCA cycle intermediates (ImKCs): all decreased | levels of glycolysis intermediates (G6P, F1,6BP, G3P, pyruvate, lactate) (ImKCs): increased significantly | ECAR [5, 7]: immediate increase | OCR [5, 7]: concomitant decrease | glycolytic capacity and reserve ([5]; 50 and 500 nM, 24 hrs): significant increase | glycolysis and glycolytic capacity ([5]; Arrb2−/− ImKCs, 50 nM): did not stimulate any increase | glycolysis, glycolytic capacity and glucose consumption ([5]; siGpr3 ImKCs, 50 nM): did not stimulate any increase | glycolysis and glycolytic capacity ([5]; siGpr3 ImKCs, 500 nM, lower than in scramble siRNA ImKCs): significant increase | transcription of c-Myc [6]: stimulated the transcription
